The text below walks through data of article PMC5142613 (The Biochemical journal, 2015).

Entries after “also recorded” stand apart in the source; their conditions may differ.

Experiment [1] has as its target T1, ATAD2A bromodomain (Homo sapiens, UniProt Q6PL18).
T1 sequence (Q6PL18 980-1092 limits assumed): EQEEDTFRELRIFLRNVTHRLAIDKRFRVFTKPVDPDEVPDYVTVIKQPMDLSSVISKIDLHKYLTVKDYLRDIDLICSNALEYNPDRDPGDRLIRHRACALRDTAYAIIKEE
The experiment in a line: ATAD2A AlphaScreen assay. Particulars: for Displacement of histone peptide by small molecule: titration upon H4K5Ac peptide competition, Supplementary Fig. 3b. It is filed as binding.

In experiment [2] the target is ATAD2A bromodomain. Briefly: DiscoveRx competitive displacement assay. Format: binding. Particulars: orthogonal assay; as previously described [22].
Experiment [3] concerns the target T1, ATAD2A bromodomain. Briefly: X-ray co-crystallography of ATAD2A complexes. Format: binding. Particulars: for Binding site / binding mode in crystal structure: co-crystal structure with ATAD2A bromodomain; for Conformational form of ATAD2A in the complex: co-crystal structure, ZA loop position relative to PDB 3DAI.
Experiment [4] relates to ATAD2A bromodomain. The note with it: ref [24]; cited from earlier work.
In experiment [5] the test system is ATAD2A bromodomain. The note with it: human cells (H3K14ac listed second, "respectively"); ref [7], [30]; cited from earlier work.

As for `CCOC(=O)Nc1cc(-c2ccc(C)c(NS(C)(=O)=O)c2)nn2c(C)nnc12` [Bromosporine, reference compound], the “Displacement of histone peptide by small molecule” value (“Displacement of histone peptide” below) on ATAD2A bromodomain [1] is listed as “displaced”. Also, the “Affinity in DiscoveRx competitive displacement assay” value (shortened to “Affinity”) at ATAD2A bromodomain [2] was “high μM”.
Take `COC(=O)c1cc(NS(=O)(=O)c2ccccc2)cc(-c2c(C)noc2C)c1` [compound 1, Methyl 3-(3,5-dimethylisoxazol-4-yl)-5-(phenylsulfonamido)benzoate]: on ATAD2A bromodomain [3], the “Binding site / binding mode in crystal structure” value (from here on “Binding site / binding mode”) is given as “acetyllysine mimetic binding mode” and the “Conformational form of ATAD2A in the complex” value is “open form”. Further, at ATAD2A bromodomain [1], the “Displacement of histone peptide” value was “displaced”. In addition, the “Affinity” value on ATAD2A bromodomain [2] was “high μM”.
For `Cc1noc(C)c1-c1cc(NS(=O)(=O)c2ccccc2)cc(C(=O)O)c1` [compound 2, 3-(3,5-Dimethylisoxazol-4-yl)-5-(phenylsulfonamido)benzoic acid], at ATAD2A bromodomain [3], the “Binding site / binding mode” value is listed as “acetyllysine mimetic binding mode” and the “Conformational form of ATAD2A in the complex” value is “open form”. At ATAD2A bromodomain [1] (Fig. 5a, IC50 and Kd (AlphaScreen and DiscoveRx), comparison with compound 1), the “Binding measured in vitro, compound 2 versus compound 1” value is given as “weaker binding”. Moreover, the “Displacement of histone peptide” value on ATAD2A bromodomain [1] is reported as “displaced”. In addition, the “Affinity” value on ATAD2A bromodomain [2] was “high μM”.
Take “ARTKQTARKSTGGK(Ac)APRKQLAGGK [H3K14ac, reference compound]”: the “Interaction in panning of histone peptide panels by peptide array” value in the experiment with ATAD2A bromodomain [4] is “have not been confirmed”. Moreover, in the experiment on ATAD2A bromodomain [5], the “Histone interaction by co-immunoprecipitation, human cells” value was “histone interactions have been reported”. The “Binding site / binding mode” value on ATAD2A bromodomain [3] is reported as “interacts along the end of αC helix, far from the acetyllysine binding site; also recorded: binds non-specifically”. Moreover, the “Response of acetylated histone peptide in AlphaScreen panel” value at ATAD2A bromodomain [1] (direct binding of biotinylated peptide to His-ATAD2A, chemiluminescent readout) is on record as “did not respond”.
